Assay results reported in PubChem BioAssay (NCI).
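Here, GI50 denotes the concentration required for 50% inhibition of growth. TGI: concentration producing complete growth inhibition.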

Key:
Assay in all cases: NCI anticancer screen, dose series, 384-well format
HCT-116 colon = test system: HCT-116 colon
SK-MEL-5 melanoma = test system: SK-MEL-5 melanoma
SK-MEL-28 melanoma = test system: SK-MEL-28 melanoma
A549 NSCLC = test system: A549 NSCLC
MDA-MB-468 breast = test system: MDA-MB-468 breast
IGROV1 ovarian = test system: IGROV1 ovarian
CCRF-CEM leukemia = test system: CCRF-CEM leukemia
SW-620 colon = test system: SW-620 colon
SN12C renal = test system: SN12C renal
K-562 leukemia = test system: K-562 leukemia
HT29 colon = test system: HT29 colon
KM12 colon = test system: KM12 colon
DU-145 prostate = test system: DU-145 prostate
OVCAR-8 ovarian = test system: OVCAR-8 ovarian
U251 glioblastoma = test system: U251 glioblastoma
PC-3 prostate = test system: PC-3 prostate
OVCAR-3 ovarian = test system: OVCAR-3 ovarian
MALME-3M melanoma = test system: MALME-3M melanoma
LOX IMVI melanoma = test system: LOX IMVI melanoma
UACC-62 melanoma = test system: UACC-62 melanoma
TK-10 renal = test system: TK-10 renal
HCC-2998 colon = test system: HCC-2998 colon
HCT-15 colon = test system: HCT-15 colon
NCI-H460 NSCLC = test system: NCI-H460 NSCLC
UO-31 renal = test system: UO-31 renal
HOP-62 NSCLC = test system: HOP-62 NSCLC
SNB-19 CNS = test system: SNB-19 CNS
786-0 renal = test system: 786-0 renal
SK-OV-3 ovarian = test system: SK-OV-3 ovarian
MDA-MB-231 breast = test system: MDA-MB-231 breast
OVCAR-5 ovarian = test system: OVCAR-5 ovarian
NCI/ADR-RES ovarian = test system: NCI/ADR-RES ovarian
RXF 393 renal = test system: RXF 393 renal
SK-MEL-2 melanoma = test system: SK-MEL-2 melanoma
ACHN renal = test system: ACHN renal
M14 melanoma = test system: M14 melanoma
NCI-H23 lung = test system: NCI-H23 lung
RPMI-8226 leukemia = test system: RPMI-8226 leukemia
UACC-257 melanoma = test system: UACC-257 melanoma
EKVX NSCLC = test system: EKVX NSCLC
OVCAR-4 ovarian = test system: OVCAR-4 ovarian
MOLT-4 leukemia = test system: MOLT-4 leukemia
SF-539 CNS = test system: SF-539 CNS
A498 renal = test system: A498 renal
SF-295 CNS = test system: SF-295 CNS
SNB-75 CNS = test system: SNB-75 CNS
BT-549 breast = test system: BT-549 breast

In the case of `C[C@H](NC(=O)c1c(N)nn2cccnc12)c1cc2cccc(C#Cc3cnn(C)c3)c2c(=O)n1-c1ccccc1`, the GI50 (HCT-116 colon) is reported as 6.64 µM, the TGI (HCT-116 colon) is reported as 20 µM and the GI50 (SK-MEL-5 melanoma) is reported as 5.38 µM. The TGI (SK-MEL-5 melanoma) was 20 µM, the GI50 (SK-MEL-28 melanoma) was 4.42 µM and the TGI (SK-MEL-28 melanoma) was 17.8 µM. The GI50 (A549 NSCLC) was 4.45 µM, the TGI (A549 NSCLC) was 17.6 µM and the GI50 (MDA-MB-468 breast) was 0.507 µM. The TGI (MDA-MB-468 breast) was 3.34 µM, the GI50 (IGROV1 ovarian) was 0.559 µM and the TGI (IGROV1 ovarian) was 2.1 µM. It also gave a GI50 (CCRF-CEM leukemia) of 0.0549 µM, a TGI (CCRF-CEM leukemia) of 1.78 µM and a GI50 (SW-620 colon) of 15.3 µM. For the same molecule, the TGI (SW-620 colon) was 28.7 µM, the GI50 (SN12C renal) was 4.38 µM and the TGI (SN12C renal) was 20 µM. It also gave a GI50 (K-562 leukemia) of 7.56 µM, a TGI (K-562 leukemia) of 20.3 µM and a GI50 (HT29 colon) of 6.3 µM. It also gave a TGI (HT29 colon) of 20 µM, a GI50 (KM12 colon) of 10.3 µM and a TGI (KM12 colon) of 23.2 µM. For the same molecule, the GI50 (DU-145 prostate) was 7.97 µM, the TGI (DU-145 prostate) was 23.8 µM and the GI50 (OVCAR-8 ovarian) was 8.07 µM. For the same molecule, the TGI (OVCAR-8 ovarian) was 21.3 µM, the GI50 (U251 glioblastoma) was 12.3 µM and the TGI (U251 glioblastoma) was 25.1 µM. It also gave a GI50 (PC-3 prostate) of 1.84 µM, a TGI (PC-3 prostate) of 12.9 µM and a GI50 (OVCAR-3 ovarian) of 2.93 µM. The TGI (OVCAR-3 ovarian) was 14.9 µM, the GI50 (MALME-3M melanoma) was 6.62 µM and the TGI (MALME-3M melanoma) was 20.5 µM. For the same molecule, the GI50 (LOX IMVI melanoma) was 2.95 µM, the TGI (LOX IMVI melanoma) was 12.7 µM and the GI50 (UACC-62 melanoma) was 1.54 µM. For the same molecule, the TGI (UACC-62 melanoma) was 12.1 µM, the GI50 (TK-10 renal) was 3.93 µM and the TGI (TK-10 renal) was 17.3 µM. The GI50 (HCC-2998 colon) was 3.75 µM, the TGI (HCC-2998 colon) was 15.1 µM and the GI50 (HCT-15 colon) was 5.88 µM. The TGI (HCT-15 colon) was 18.7 µM, the GI50 (NCI-H460 NSCLC) was 3.71 µM and the TGI (NCI-H460 NSCLC) was 16.7 µM. For the same molecule, the GI50 (UO-31 renal) was 3.18 µM, the TGI (UO-31 renal) was 14.1 µM and the GI50 (HOP-62 NSCLC) was 7.24 µM. It also gave a TGI (HOP-62 NSCLC) of 20.4 µM, a GI50 (SNB-19 CNS) of 13 µM and a TGI (SNB-19 CNS) of 26.5 µM. It also gave a GI50 ([…]-0 renal) of 4.91 µM, a TGI (786-0 renal) of 17.2 µM and a GI50 (SK-OV-3 ovarian) of 2.19 µM. For the same molecule, the TGI (SK-OV-3 ovarian) was 12.5 µM, the GI50 (MDA-MB-231 breast) was 6.03 µM and the TGI (MDA-MB-231 breast) was 18.3 µM. It also gave a GI50 (OVCAR-5 ovarian) of 8.39 µM, a TGI (OVCAR-5 ovarian) of 22.2 µM and a GI50 (NCI/ADR-RES ovarian) of 5.28 µM. It also gave a TGI (NCI/ADR-RES ovarian) of 16.2 µM, a GI50 (RXF 393 renal) of 1.3 µM and a TGI (RXF 393 renal) of 5.68 µM. For the same molecule, the GI50 (SK-MEL-2 melanoma) was 12.4 µM, the TGI (SK-MEL-2 melanoma) was 24.9 µM and the GI50 (ACHN renal) was 4.31 µM. It also gave a TGI (ACHN renal) of 19.4 µM, a GI50 (M14 melanoma) of 11.1 µM and a TGI (M14 melanoma) of 24.9 µM. The GI50 (NCI-H23 lung) was 4.63 µM, the TGI (NCI-H23 lung) was 18.9 µM and the GI50 (RPMI-8226 leukemia) was 1.71 µM. It also gave a TGI (RPMI-8226 leukemia) of 3.73 µM, a GI50 (UACC-257 melanoma) of 8.67 µM and a TGI (UACC-257 melanoma) of 22.7 µM. It also gave a GI50 (EKVX NSCLC) of 2.6 µM, a TGI (EKVX NSCLC) of 15.3 µM and a GI50 (OVCAR-4 ovarian) of 11.9 µM. For the same molecule, the TGI (OVCAR-4 ovarian) was 25.4 µM, the GI50 (MOLT-4 leukemia) was 0.847 µM and the TGI (MOLT-4 leukemia) was 2.21 µM. It also gave a GI50 (SF-539 CNS) of 4.67 µM, a TGI (SF-539 CNS) of 17 µM and a GI50 (A498 renal) of 2.72 µM. It also gave a TGI (A498 renal) of 14.8 µM, a GI50 (SF-295 CNS) of 4.14 µM and a TGI (SF-295 CNS) of 17.1 µM. For the same molecule, the GI50 (SNB-75 CNS) was 0.806 µM, the TGI (SNB-75 CNS) was 4.38 µM and the GI50 (BT-549 breast) was 1.48 µM. It also gave a TGI (BT-549 breast) of 9.11 µM.
